Assay results reported in patent US20240294572A1, “Antimicrobial Peptides” (priority 2021, published 2024).
Non-standard residues stand in square brackets, D forms with d. Residues, ends and D or L forms follow the SMILES beside them. *: point of attachment. Decanoyl = CCCCCCCCCC(=O)*

Experiments:
HaCaT cells = format: cell-based, human
Experimental: Peptides were assessed for potential cytotoxicity using HaCaT cells (Addexbio Technologies, CA). Briefly, cells were seeded at a density of 1×10^4 per well in a tissue culture 96-well plate. DMEM was supplemented with 10% fetal bovine serum (FBS) and incubated at 37° C. in a 5% CO2 atmosphere for 24 hours. Culture medium was aspirated and replaced with fresh serum free media. Cells were exposed to different concentrations of peptides for 1 hour at 37° C. in a 5% CO2 atmosphere. Post-incubation, the cells were washed and incubated with 100 μL of DMEM media containing 20 μL of MTS reagent for 2 hours at 37° C. Absorbance was read at 492 nm using a ChroMate® microplate reader (Awareness Technology, FL).

S. aureus USA300 LAC = experiment: Bacterial membrane permeation (propidium iodide); format: cell-based; conditions: 12.5 μM
Experimental: The experiment was performed as described with minor modifications (Mishra, et al. (2019) Proc. Natl. Acad. Sci., 116:13517-13522). Serially diluted 10×peptides (10 μL each well) were created in 96-well microtiter plates. Propidium iodide (2 μL) at a fixed concentration of 20 μM was added to each well followed by 88 μL of the exponential phase S. aureus USA300 culture (a final OD600˜0.1 in TSB media or PBS). Both daptomycin (98%, TSZChem, MA) and rifamycin (98%, Alfa Aesar, MA) were used as controls. The plate was incubated at 37° C. with continuous shaking at 100 rpm in a FLUOstar® Omega (BMG LABTECH, NC) microplate reader. The samples fluorescence was read at every 5 minutes for 24 cycles with excitation and emission wavelengths of 584 and 620 nm, respectively. Plots were generated using average values from the experiments using GraphPad Prism 7.

In vivo toxicity = experiment: In vivo toxicity; parameters: species or system C57BL/6 mice
Experimental: Toxicity was assessed in female C57BL/6 mice by the intraperitoneal administration of increasing doses of the antimicrobial peptide C10-KR8d (10, 20, and 40 mg/kg) and a control group without peptide treatment. The animals were then observed for 5 days (twice a day). The number of moribund/dead animals for each of the doses was noted and plotted.
Mice were caged, fed, and environmentally adapted as described (Lakshmaia, et al. (2020) Proc. Natl. Acad. Sci., 117:19446-19454). All animal manipulations were performed in a class II laminar flow biological safety cabinet.

Which results are given for `CCCCCCCCCC(=O)N[C@H](CCCCN)C(=O)N[C@H](CCCNC(=N)N)C(=O)N[C@@H](C(=O)N[C@H](Cc1c[nH]c2ccccc12)C(=O)N[C@H](CCC(N)=O)C(=O)N[C@H](CCCNC(=N)N)C(=O)N[C@@H](C(=O)N[C@H](CCCCN)C(N)=O)[C@H](C)CC)[C@H](C)CC` [Peptide C10-KR8d] (Decanoyl-[dK][dR][dI][dW][dQ][dR][dI][dK]-NH2)?
relative toxicity to HaCaT cells (HaCaT cells): slightly more toxic than C10-KR8; membrane permeation (propidium iodide fluorescence) (S. aureus USA300 LAC): able to permeate the membranes of S. aureus USA300 LAC; MTD at 5 days (In vivo toxicity; female, C57BL/6, mouse, in vivo, ip, C57BL/6 mice, read-out: maximal tolerated dose (MTD)): ≥ 20 mg/kg; survival of mice (In vivo toxicity; i.p. 40 mg/kg): all mice died in a day; survival of mice (In vivo toxicity; i.p. 10 or 20 mg/kg, 5 days observation): all mice survived
